The values that follow come from patent US20230009323A1, “COMPOUNDS AND METHODS FOR THE TREATMENT OF CRYPTOSPORIDIOSIS” (The Broad Institute, Inc., priority 2019, published 2023).

The target of data set [1] is recombinant C. hominis PheRS (ChPheRS) (Cryptosporidium hominis, UniProt A0A0S4TD72). As to the kind of experiment: C. hominis PheRS aminoacylation assay. The class given is biochemical. The following applies: aminoacylation activity. The protocol:
The protein sequences of C. hominis PheRS alpha (Chro.30378) and beta subunits (Chro.80385) were retrieved from the Crypto DB (https://cryptodb.org/cryptodb/). Genes were inserted to pETM 11 and pETM 20 vectors and both alpha and beta subunits were co-expressed in E. coli B834 competent cells. Recombinant proteins were expressed by growing cells at 37° C. to OD600 of 0.6-0.8, followed by induction with 0.6 mM isopropyl β-d-1-thiogalactopyranoside (IPTG). The cells were later harvested by centrifugation at 5,000×g and cell pellet suspended in a buffer containing 50 mM Tris-HCl (pH 8.8), 200 mM NaCl, 4 mM [3-mercaptoethanol, 10% (v/v) glycerol, 0.1 mg ml-1 lysozyme and 1 mM phenylmethylsulfonyl fluoride (PMSF)]. The bacterial cells were lysed using sonication and cleared by centrifugation at 20,000×g for 45 mins. […]

In data set [2] the test system is C. parvum WT transgenic PheRS (wtL482). As to the kind of experiment: In vitro drug susceptibility in HCT-8 cells, luminescence, wild type transgenic. It is filed as cell-based. The following applies: Cryptosporidium parvum, HCT-8, 48 h, read-out: EC50, wild type transgenic. As to the method:
The in vitro drug susceptibility assay using transgenic parasites expressing Nluc was performed as described in Vinyak et al. Briefly, host intestinal epithelial adenocarcinoma (HCT-8) cells grown in 96-well plates were infected with purified transgenic Nluc-expressing oocysts (1,000 oocysts per well) and incubated with different concentrations of Compound 11 for 48 hours. Culture supernatant was discarded from the wells after 48 hours, and 200 μl of NanoGlo lysis buffer containing 1:50 of NanoGlo substrate (Promega) was added to the wells. Lysates were transferred to white 96-well plates and luminescence was measured on a Glomax luminescence reader (Promega). EC50 values were calculated in GraphPad Prism software v7.
Oocysts from the mutant (mut482V) and wild type (wtL482) transgenic lines were purified as well as the parent strain (Bunchgrass) used to generate the transgenics. Sporozoites were excised from these oocysts and used to infect 96 well format HCT-8 cultures to perform in vitro drug susceptibility assays. Cultures were incubated for 48 hours in the presence of varying concentrations of Compound 11 and parasite growth was measured by establishing whole well luciferase activity to calculate EC50 values for each strain.

The next data set can be described thus: HEK293T cytotoxicity. It is filed as cell-based. The following applies: human, HEK293T cells.
Another data set relates to C. parvum. As to the kind of experiment: Host cell invasion assay. The class given is cell-based, Cryptosporidium parvum.
For another data set, the system named is cytosolic PfcPheRS. The following applies: previously reported; cited from earlier work.
For another data set, the system named is C. hominis (TU 502). As to the kind of experiment: C. hominis TU502 growth in HCT-8 cells. It is filed as cell-based. As to conditions: Cryptosporidium hominis. As to the method: Studies using farm C. parvum isolates and the C. hominis TU502 isolate were performed by Calibr at Scripps Research (La Jolla, Calif.) in 1,536-well plates using a slightly modified immunofluorescence assay as described in Love, M. S. et al. PLoS neglected tropical diseases 11, e0005373, doi:10.1371/journal.pntd.0005373 (2017), hereby incorporated by reference in its entirety. HCT-8 cell culture medium was replaced with RPMI 1640 medium supplemented with 2% heat-inactivated horse serum, 100 U·mL^−1 penicillin, and […] 24 h prior to infection with the indicated isolate. The C. parvum Iowa isolate was included as a reference in all experiments. Imaging was performed using a Cellnsight CX5 High Content screening platform (Thermo Scientific) with a 10× objective and acquisition of one microscopic field per well. Images were processed using HCS Studio Scan software, and the selected-object count (HCT-8 cells) and spot count (parasitophorous vacuoles) were analyzed in Genedata Screener (version 13.0; Standard). Dose-response curves and EC50 values were calculated using the Smart Fit function of Genedata Analyzer.

As for `COc1ccc(NC(=O)N2CCCCN3[C@H](CN(C)C)[C@H](c4ccc(C#Cc5ccccc5)cc4)[C@@H]3C2)cc1` [Compound 11, (8R,9S,10S)-10-((dimethylamino)methyl)-N-(4-methoxyphenyl)-9-(4-(phenylethynyl)phenyl)-1,6-diazabicyclo[6.2.0]decane-6-carboxamide], the IC50 (commonly the concentration that gives 50% inhibition) in data set [1] was 60 nM; in the data set on cytosolic PfcPheRS, 23 nM. Also, the EC50 – broadly, the concentration that produces a half-maximal response – in data set [2] amounted to 47 nM; in the data set with C. hominis (TU 502), 10 nM. Besides, the CC50 (commonly the concentration at which the toxic effect on the cells reaches its halfway point) in the data set “HEK293T cytotoxicity” was 5000 nM. Moreover, the “effect on host cell invasion” value in the data set with C. parvum is listed as “No effect”.
